Experimental data: paper PMC11243685, “Synthesis and Enzymatic Evaluation of a Small Library of Substituted Phenylsulfonamido-Alkyl Sulfamates towards Carbonic Anhydrase II” (Molecules, 2024)

Biological target: T1, bovine carbonic anhydrase II (Bos taurus, UniProt P00921)
T1 construct: carbonic anhydrase II (bCAII, ≥3000 W-A units/mg from bovine erythrocytes) from Sigma; purchased Sigma (Taufkirchen, Germany); host or cells: isolated from bovine erythrocytes
Test: Enzymatic assay of bCA II inhibition, absorbance at 415 nm;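 also: enzyme is carbonic anhydrase II isolated from bovine erythrocytes, with its activity followed photometrically at 415 nm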
Format: biochemical
Settings: CA II; from Lineweaver–Burk, Dixon and Cornish Bowden plots; read-out: Inhibition constant Ki
Experimental: The enzymatic assays have been performed with carbonic anhydrase II (bCAII, ≥3000 W-A units/mg from bovine erythrocytes) from Sigma (Taufkirchen, Germany) using a BMG Labtech Spectrostar Omega apparatus (BMG Labtech, Ortenberg, Germany) measuring λ = 415 nm. Conditions have been described previously [72]. Ki and Ki′ values were determined from Lineweaver–Burk, Dixon and Cornish Bowden plots, respectively.

T1 sequence (P00921 whole entry): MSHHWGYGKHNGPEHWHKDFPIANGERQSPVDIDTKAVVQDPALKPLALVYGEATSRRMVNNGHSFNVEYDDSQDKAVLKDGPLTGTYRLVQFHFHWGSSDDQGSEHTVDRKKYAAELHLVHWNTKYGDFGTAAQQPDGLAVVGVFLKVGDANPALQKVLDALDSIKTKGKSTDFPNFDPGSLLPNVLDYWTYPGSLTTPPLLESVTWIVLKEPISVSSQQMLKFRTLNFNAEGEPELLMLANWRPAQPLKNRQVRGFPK

Row | Ki [µM] | SMILES
1 | 1.58 ± 0.02 | Cc1ccccc1S(=O)(=O)NCCCCCCOS(N)(=O)=O [30b, 6-[(2-Methylphenyl)sulfonamido]hexyl Sulfamate]
2 | 1.64 ± 0.03 | CC(C)c1cccc(S(=O)(=O)NCCOS(N)(=O)=O)c1 [40b, 2-[(3-Isopropylphenyl)sulfonamido]ethyl Sulfamate]

Same assay, conditions: bCA II; 1 μM concentration of the inhibitor; triplicate with three technical replicas

Row | inhibition at 1 µM [%] | SMILES
3 | 59.2 ± 0.8 | NS(=O)(=O)OCCNS(=O)(=O)c1ccccc1 [1b, 2-(Phenylsulfonamido]ethyl Sulfamate]
4 | 32.2 ± 0.3 | NS(=O)(=O)OCCCCNS(=O)(=O)c1ccccc1 [3b, 4-(Phenylsulfonamido]butyl Sulfamate]
5 | 51.8 ± 0.7 | NS(=O)(=O)OCCCCCNS(=O)(=O)c1ccccc1 [4b, 5-(Phenylsulfonamido]pentyl Sulfamate]
6 | 37.9 ± 0.7 | Cc1ccccc1S(=O)(=O)NCCCCOS(N)(=O)=O [28b, 4-[(2-Methylphenyl)sulfonamido]butyl Sulfamate]
7 | 57.2 ± 0.7 | Cc1ccccc1S(=O)(=O)NCCCCCOS(N)(=O)=O [29b, 5-[(2-Methylphenyl)sulfonamido]pentyl Sulfamate]
8 | 68.1 ± 0.3 | Cc1ccccc1S(=O)(=O)NCCCCCCOS(N)(=O)=O [30b, 6-[(2-Methylphenyl)sulfonamido]hexyl Sulfamate]
9 | 55.6 ± 0.7 | Cc1ccccc1S(=O)(=O)NCCCCCCCOS(N)(=O)=O [31b, 7-[(2-Methylphenyl)sulfonamido]heptyl Sulfamate]
10 | 56.2 ± 0.8 | Cc1ccccc1S(=O)(=O)NCCCCCCCCOS(N)(=O)=O [32b, 8-[(2-Methylphenyl)sulfonamido]octyl Sulfamate]
11 | 63.7 ± 0.1 | CC(C)c1cccc(S(=O)(=O)NCCOS(N)(=O)=O)c1 [40b, 2-[(3-Isopropylphenyl)sulfonamido]ethyl Sulfamate]
12 | 50.1 ± 0.9 | CC(C)c1cccc(S(=O)(=O)NCCCOS(N)(=O)=O)c1 [41b, 3-[(3-Isopropylphenyl)sulfonamido]propyl Sulfamate]
13 | 35.3 ± 0.5 | CC(C)c1cccc(S(=O)(=O)NCCCCOS(N)(=O)=O)c1 [42b, 4-[(3-Isopropylphenyl)sulfonamido]butyl Sulfamate]
14 | 44.4 ± 0.3 | CC(C)c1cccc(S(=O)(=O)NCCCCCOS(N)(=O)=O)c1 [43b, 5-[(3-Isopropylphenyl)sulfonamido]pentyl Sulfamate]
15 | 45.5 ± 0.7 | CC(C)c1cccc(S(=O)(=O)NCCCCCCOS(N)(=O)=O)c1 [44b, 6-[(3-Isopropylphenyl)sulfonamido]hexyl Sulfamate]
16 | 37 ± 0.3 | CC(C)c1cccc(S(=O)(=O)NCCCCCCCOS(N)(=O)=O)c1 [45b, 7-[(3-Isopropylphenyl)sulfonamido]heptyl Sulfamate]
17 | 29.5 ± 0.9 | CC(C)c1cccc(S(=O)(=O)NCCCCCCCCOS(N)(=O)=O)c1 [46b, 8-[(3-Isopropylphenyl)sulfonamido]octyl Sulfamate]
18 | 38.4 ± 0.2 | CC(C)c1ccccc1S(=O)(=O)NCCCCCCCOS(N)(=O)=O [47b, 7-[(2-Isopropylphenyl)sulfonamido]heptyl Sulfamate]

Row | inhibition at 1 µM [%] | SMILES
19 | 34.2 ± 0.7 | CC(C)c1ccccc1S(=O)(=O)NCCCCCCCCOS(N)(=O)=O [48b, 8-[(2-Isopropylphenyl)sulfonamido]octyl Sulfamate]
20 | 54 ± 0.9 | CC(C)(C)c1cccc(S(=O)(=O)NCCOS(N)(=O)=O)c1 [58b, 2-[(3-(tert-Butyl)phenyl)sulfonamido]ethyl Sulfamate]
21 | 53.9 ± 0.3 | CC(C)(C)c1cccc(S(=O)(=O)NCCCOS(N)(=O)=O)c1 [59b, 3-[(3-(tert-Butyl)phenyl)sulfonamido]propyl Sulfamate]
22 | 43.3 ± 0.6 | CC(C)(C)c1cccc(S(=O)(=O)NCCCCOS(N)(=O)=O)c1 [60b, 4-[(3-(tert-Butyl)phenyl)sulfonamido]butyl Sulfamate]
23 | 39.2 ± 0.1 | CC(C)(C)c1cccc(S(=O)(=O)NCCCCCOS(N)(=O)=O)c1 [61b, 5-[(3-(tert-Butyl)phenyl)sulfonamido]pentyl Sulfamate]
24 | 41.7 ± 0.8 | CC(C)(C)c1cccc(S(=O)(=O)NCCCCCCOS(N)(=O)=O)c1 [62b, 6-[(3-(tert-Butyl)phenyl)sulfonamido]hexyl Sulfamate]
25 | 33.3 ± 0.3 | CC(C)(C)c1cccc(S(=O)(=O)NCCCCCCCOS(N)(=O)=O)c1 [63b, 7-[(3-(tert-Butyl)phenyl)sulfonamido]heptyl Sulfamate]
26 | 56.2 ± 0.8 | CC(C)(C)c1ccccc1S(=O)(=O)NCCCCCOS(N)(=O)=O [65b, 5-[(2-(tert-Butyl)phenyl)sulfonamido]pentyl Sulfamate]
27 | 34.5 ± 0.4 | CC(C)(C)c1ccccc1S(=O)(=O)NCCCCCCOS(N)(=O)=O [66b, 6-[(2-(tert-Butyl)phenyl)sulfonamido]hexyl Sulfamate]
28 | 27.5 ± 0.3 | CC(C)(C)c1ccccc1S(=O)(=O)NCCCCCCCOS(N)(=O)=O [67b, 7-[(2-(tert-Butyl)phenyl)sulfonamido]heptyl Sulfamate]
29 | 52.1 ± 1.2 | NS(=O)(=O)OCCNS(=O)(=O)c1ccc(C2CCCCC2)cc1 [68b, 2-[(4-Cyclohexylphenyl)sulfonamido]ethyl Sulfamate]
30 | 34.7 ± 2.5 | NS(=O)(=O)OCCCCNS(=O)(=O)c1ccc(C2CCCCC2)cc1 [70b, 4-[(4-Cyclohexylphenyl)sulfonamido]butyl Sulfamate]
31 | 18.6 ± 1 | NS(=O)(=O)OCCCCCNS(=O)(=O)c1ccc(C2CCCCC2)cc1 [71b, 5-[(4-Cyclohexylphenyl)sulfonamido]pentyl Sulfamate]
32 | 14.8 ± 0.4 | NS(=O)(=O)OCCCCCCCNS(=O)(=O)c1ccc(C2CCCCC2)cc1 [73b, 7-[(4-Cyclohexylphenyl)sulfonamido]heptyl Sulfamate]
33 | 14.2 ± 1.1 | NS(=O)(=O)OCCCCCCCCNS(=O)(=O)c1ccc(C2CCCCC2)cc1 [74b, 8-[(4-Cyclohexylphenyl)sulfonamido]octyl Sulfamate]
34 | 19.7 ± 1.6 | NS(=O)(=O)OCCCCCCCCCCNS(=O)(=O)c1ccc(C2CCCCC2)cc1 [76b, 10-[(4-Cyclohexylphenyl)sulfonamido]decyl Sulfamate]

Test system: not given
Test: not given
Settings: not given

Row | melting point [°C] | SMILES
35 | 78 to 79 | O=S(=O)(NCCO)c1ccccc1 [1a, N-(2-Hydroxyethyl)benzene Sulfonamide]
36 | 40 to 42 | O=S(=O)(NCCCCCCO)c1ccccc1 [5a, N-(6-Hydroxyhexyl)benzene Sulfonamide]
37 | 59 to 60 | O=S(=O)(NCCCCCCCCO)c1ccccc1 [7a, N-(8-Hydroxyoctyl)benzene Sulfonamide]
38 | 40 to 41 | O=S(=O)(NCCCCCCCCCO)c1ccccc1 [8a, N-(9-Hydroxynonyl)benzene Sulfonamide]
39 | 67 to 69 | O=S(=O)(NCCCCCCCCCCO)c1ccccc1 [9a, N-(10-Hydroxydecyl)benzene Sulfonamide]
40 | 58 to 59 | O=S(=O)(NCCCCCCCCCCCO)c1ccccc1 [10a, N-(11-Hydroxyundecyl)benzene Sulfonamide]
41 | 76 to 77 | O=S(=O)(NCCCCCCCCCCCCO)c1ccccc1 [11a, N-(12-Hydroxydodecyl)benzene Sulfonamide]
42 | 55 to 57 | Cc1ccc(S(=O)(=O)NCCO)cc1 [12a, N-(2-Hydroxyethyl)-4-methylbenzene Sulfonamide]
43 | 55 to 57 | Cc1ccc(S(=O)(=O)NCCCO)cc1 [13a, N-(3-Hydroxypropyl)-4-methylbenzene Sulfonamide]
44 | 50 to 51 | Cc1ccc(S(=O)(=O)NCCCCO)cc1 [14a, N-(4-Hydroxybutyl)-4-methylbenzene Sulfonamide]
45 | 60 to 61 | Cc1ccc(S(=O)(=O)NCCCCCO)cc1 [15a, N-(5-Hydroxypentyl)-4-methylbenzene Sulfonamide]
